Results on two molecules are retold here after ChEMBL document CHEMBL3853262 (Medchemcomm, 2016).

Broadly, the EC50 is the concentration needed to bring the measured effect to its halfway point. A high value points to a need for much substance.

The structures appear in SMILES notation.

Assay type in all cases: functional, cell-based
One assay deals with BJ. Kind of assay: Proapoptotic activity in human BJ cells by annexin V-FITC/propidium iodide staining-based capillary cytometric method.
A further assay deals with BXPC-3. Kind of assay: Proapoptotic activity in human BxPC3 cells by annexin V-FITC/propidium iodide staining-based capillary cytometric method.
The test system of another assay is ASPC1. Kind of assay: Proapoptotic activity in human AsPC1 cells by annexin V-FITC/propidium iodide staining-based capillary cytometric method.
The next assay relates to NTERA-2-cl-D1. Put plainly: Proapoptotic activity in human NT2/D1 cells by annexin V-FITC/propidium iodide staining-based capillary cytometric method.

As to `Nc1nc(-c2cccc(NC(=O)c3cc4cc(Cl)ccc4[nH]3)c2)c[nH]1`, the EC50 came to 20 µM with BJ, 25 µM with BXPC-3, 19 µM in the assay with ASPC1 and 16 µM in the assay with NTERA-2-cl-D1.
The like results for `Nc1nc(-c2cccc(NC(=O)c3cc4cc(F)ccc4[nH]3)c2)c[nH]1` were, in that order, 16 µM, 28 µM, 27 µM and 13 µM.
